The text below walks through data of patent US9265756B2, “Crystalline forms of grapiprant” (Aratana Therapeutics Inc., priority 2014, dated 2016).

Molecules are shown by their SMILES. “Also recorded” adds a separate entry of the source.

Series [1] in a line: water activity relating Forms A and D. In kind it is physicochemical. Particulars: room temperature. How it is done: Overall, FIG. 1 summarizes the relationship of each polymorphic form with relationship to each other. Form J may be converted to Form D by drying in air (1). Form J may be converted to Form A by slurry in DCM/acetone (<1:2 v/v) at 25° C. (2). Form A may be converted to Form J by precipitation from DCM/n-heptane (2:1 v/v) (3). Forms A and D have an aw value of about 0.6 at room temperature (4). Form X may be converted from a slurry mixture of Form D and Form J in DCM/acetone or DCM/n-heptane (2:1 v/v) at room temperature (5). Form X may be converted to Form A by slurry in DCM/acetone (1:1 v/v) (6). Form A may be converted to Form X by slurry in DCM/acetone (≦1:3 v/v (7) or 1:2 v/v with 0.3 wt. % water (8)). Form X2 may be converted to Form A by slurry in DCM/acetone (1:3 v/v) with 0.3 wt. % water (9). Form A may be converted to Form X2 by slurry in acetone with 0.3 wt. % water (10). Form X2 may be converted to Form X3 by drying (11). Form X2 may also be generated by slurry of Forms A and X3 in DCM/acetone (1:3 v/v) with 0.3 wt. % water (12).

The nature of series [2]: stability of crystalline forms (slurry experiments). Particulars: in 1:1 DCM/acetone (v/v).
Procedure: The stability of the crystalline forms was analyzed using slurry experiments. A portion of the solvent of interest was saturated with grapiprant in a small vial. Additional grapiprant was then added to the vial, and the resulting slurry was stirred using a magnetic stir bar.
A short description of series [3]: solid form change on heating (XRPD). In kind it is physicochemical. How it is done:
The X-ray powder diffraction (XRPD) pattern was determined using an X-ray diffractometer. The instrument was equipped with a long fine focus X-ray tube (with a copper Kα radiation source operated at 45 kV/40 mA), and a diffracted beam monochromator mounted in front of a scintillation detector. The instrument parameters included a scan range of 3.0 to 40.0 degrees 2-theta, a step size of 0.02 degrees 2-theta, and a scan time of 12.7 seconds per step. The instrument was interfaced with a computer for data acquisition and analysis. Each sample was uniformly crushed with a spatula edge and placed on a quartz, zero-background holder.

Series [4] deals with other human prostanoid receptor subtypes. Particulars: cited from earlier work.
Series [5] has as its system thermal hyperalgesia induced by intraplantar injection of PGE2. Particulars: oral administration; cited from earlier work.
Series [6] has as its system mechanical hyperalgesia induced by carrageenan model. Particulars: cited from earlier work.
The test system of series [7] is complete Freund's adjuvant-induced chronic inflammatory pain response. Particulars: cited from earlier work.

In the case of `CCc1nc2c(C)nc(C)cc2n1-c1ccc(CCNC(=O)NS(=O)(=O)c2ccc(C)cc2)cc1` [Form A], the aw value result in series [1] is given as “about 0.6”. Further, in series [2], the “relative stability of crystalline forms” value is “more stable than Form J”.

As to `CCc1nc2c(C)nc(C)cc2n1-c1ccc(CCNC(=O)NS(=O)(=O)c2ccc(C)cc2)cc1` [Form J], in series [3] (heating to 120° C.), the “form after heating (XRPD)” value is “becomes Form A; also recorded: converted into Form A”.

Take `CCc1nc2c(C)nc(C)cc2n1-c1ccc(CCNC(=O)NS(=O)(=O)c2ccc(C)cc2)cc1` [Form X]: the “form after heating (XRPD)” value in series [3] (heating to 110° C.) is listed as “becomes amorphous; also recorded: converted into amorphous”.

For the molecule `CCc1nc2c(C)nc(C)cc2n1-c1ccc(CCNC(=O)NS(=O)(=O)c2ccc(C)cc2)cc1` [grapiprant, N-{2-[4-(2-ethyl-4,6-dimethyl-1H-imidazo[4,5-c]pyridin-1-yl)phenyl]ethyl}-N′-[(4-methylphenyl)sulfonyl]urea], the “selectivity for the EP4 receptor over other human prostanoid receptor subtypes” value in series [4] is given as “highly selective”. Moreover, the “ED50, reduction of thermal hyperalgesia” value in series [5] was 12.8 mg/kg. For the same molecule, the “effect on mechanical hyperalgesia” value in series [6] was “significantly reduces”. For the same molecule, the “effect on chronic inflammatory pain response” value in series [7] is given as “reverses”.
